Laboratory results published in ChEMBL document CHEMBL3046897, “Synthesis of 3-{4-[4-dimethylamino-6-(4-methyl-2-oxo-2H-chromen-7-yloxy)-[1,3,5]triazin-2-ylamino]-phenyl}-2-phenyl-5-(4-pyridin-2-yl-piperazin-1-ylmethyl)-thiazolidin-4-one and their biological evaluation” (2012).
Values after ≈ are worked out from the molar mass of the structure shown. Active and inactive are the calls of the source. The calls are words filed in the database; no cut-off is given here.

Legend:
[1] = test system: Shigella flexneri; experiment: Antibacterial activity against Shigella flexneri at 100 ug/ml after 24 hr by agar streak dilution method; type: functional, organism-based
[2] = test system: Aspergillus fumigatus; experiment: Antifungal activity against Aspergillus fumigatus at 100 ug/disc after 48 hr by paper disk diffusion method; type: functional; details: read-out: IZ
[3] = test system: Aspergillus fumigatus; experiment: Antifungal activity against Aspergillus fumigatus after 48 hr by agar streak dilution method; type: functional
[4] = test system: Aspergillus niger; experiment: Antifungal activity against Aspergillus niger at 100 ug/disk after 48 hr by paper disk diffusion method; type: functional; details: read-out: IZ
[5] = test system: Escherichia coli; experiment: Antibacterial activity against Escherichia coli after 24 hr by agar streak dilution method; type: functional
[6] = test system: Klebsiella pneumoniae; experiment: Antibacterial activity against Klebsiella pneumoniae after 24 hr by agar streak dilution method; type: functional
[7] = test system: Staphylococcus aureus; experiment: Antibacterial activity against Staphylococcus aureus at 100 ug/disc after 24 hr by paper disk diffusion method; type: functional; details: read-out: IZ
[8] = test system: Proteus vulgaris; experiment: Antibacterial activity against Proteus vulgaris at 100 ug/disk after 24 hr by paper disk diffusion method; type: functional; details: read-out: IZ
[9] = test system: Candida albicans; experiment: Antifungal activity against Candida albicans at 100 ug/disk after 48 hr by paper disk diffusion method; type: functional; details: read-out: IZ
[10] = test system: Proteus vulgaris; experiment: Antibacterial activity against Proteus vulgaris after 24 hr by agar streak dilution method; type: functional
[11] = test system: Bacillus subtilis; experiment: Antibacterial activity against Bacillus subtilis after 24 hr by agar streak dilution method; type: functional
[12] = test system: Salmonella typhi; experiment: Antibacterial activity against Salmonella enterica subsp. enterica serovar Typhi after 24 hr by agar streak dilution method; type: functional
[13] = test system: Klebsiella pneumoniae; experiment: Antibacterial activity against Klebsiella pneumoniae at 100 ug/disk after 24 hr by paper disk diffusion method; type: functional; details: read-out: IZ
[14] = test system: Pseudomonas aeruginosa; experiment: Antibacterial activity against Pseudomonas aeruginosa at 100 ug/disk after 24 hr by paper disk diffusion method; type: functional; details: read-out: IZ
[15] = test system: Candida albicans; experiment: Antifungal activity against Candida albicans after 48 hr by agar streak dilution method; type: functional
[16] = test system: Staphylococcus aureus; experiment: Antibacterial activity against Staphylococcus aureus after 24 hr by agar streak dilution method; type: functional
[17] = test system: Aspergillus clavatus; experiment: Antifungal activity against Aspergillus clavatus at 100 ug/disc after 48 hr by paper disk diffusion method; type: functional; details: read-out: IZ
[18] = test system: Aspergillus niger; experiment: Antifungal activity against Aspergillus niger after 48 hr by agar streak dilution method; type: functional
[19] = test system: Escherichia coli; experiment: Antibacterial activity against Escherichia coli at 100 ug/disk after 24 hr by paper disk diffusion method; type: functional; details: read-out: IZ
[20] = test system: Pseudomonas aeruginosa; experiment: Antibacterial activity against Pseudomonas aeruginosa after 24 hr by agar streak dilution method; type: functional
[21] = test system: Salmonella typhi; experiment: Antibacterial activity against Salmonella enterica subsp. enterica serovar Typhi at 100 ug/disk after 24 hr by paper disk diffusion method; type: functional; details: read-out: IZ
[22] = test system: Bacillus subtilis; experiment: Antibacterial activity against Bacillus subtilis at 100 ug/disk after 24 hr by paper disk diffusion method; type: functional; details: read-out: IZ
[23] = test system: Aspergillus clavatus; experiment: Antifungal activity against Aspergillus clavatus after 48 hr by agar streak dilution method; type: functional
[24] = test system: Aspergillus fumigatus; experiment: Antifungal activity against Aspergillus fumigatus at 100 ug/ml after 48 hr by agar streak dilution method; type: functional, organism-based
[25] = test system: Candida albicans; experiment: Antifungal activity against Candida albicans at 100 ug/ml after 48 hr by agar streak dilution method; type: functional, organism-based
[26] = test system: Klebsiella pneumoniae; experiment: Antibacterial activity against Klebsiella pneumoniae at 100 ug/ml after 24 hr by agar streak dilution method; type: functional, organism-based
[27] = test system: Proteus vulgaris; experiment: Antibacterial activity against Proteus vulgaris at 100 ug/ml after 24 hr by agar streak dilution method; type: functional, organism-based
[28] = test system: Shigella flexneri; experiment: Antibacterial activity against Shigella flexneri at 100 ug/disc after 24 hr by paper disk diffusion method; type: functional; details: read-out: IZ
[29] = test system: Shigella flexneri; experiment: Antibacterial activity against Shigella flexneri after 24 hr by agar streak dilution method; type: functional
[30] = test system: Pseudomonas aeruginosa; experiment: Antibacterial activity against Pseudomonas aeruginosa at 100 ug/ml after 24 hr by agar streak dilution method; type: functional, organism-based
[31] = test system: Escherichia coli; experiment: Antibacterial activity against Escherichia coli at 100 ug/ml after 24 hr by agar streak dilution method; type: functional, organism-based
[32] = test system: Salmonella typhi; experiment: Antibacterial activity against Salmonella enterica subsp. enterica serovar Typhi at 100 ug/ml after 24 hr by agar streak dilution method; type: functional, organism-based

Row | Compound | zone of inhibition at 100 µg/disc [2] [mm] | MIC [3] [µg/mL] | zone of inhibition at 100 µg/disc [4] [mm] | MIC [5] [µg/mL] | MIC [6] [µg/mL] | zone of inhibition at 100 µg/disc [7] [mm] | MIC [11] [µg/mL] | MIC [12] [µg/mL] | zone of inhibition at 100 µg/disc [13] [mm] | zone of inhibition at 100 µg/disc [14] [mm] | MIC [16] [µg/mL] | zone of inhibition at 100 µg/disc [17] [mm] | MIC [18] [µg/mL] | zone of inhibition at 100 µg/disc [19] [mm] | MIC [20] [µg/mL] | zone of inhibition at 100 µg/disc [21] [mm] | zone of inhibition at 100 µg/disc [22] [mm] | MIC [23] [µg/mL] | Activity [25] | Activity [27] | further results
1 | Cc1cc(=O)oc2cc(Oc3nc(Nc4ccc(/N=C/c5ccccc5Br)cc4)nc(N(C)C)n3)ccc12 | 20 | 25 (≈ 43.7 µM) | 15 | 100 (≈ 175 µM) | 100 (≈ 175 µM) | 13 | 50 (≈ 87.5 µM) | 100 (≈ 175 µM) | < 10 | 18 | 100 (≈ 175 µM) | 18 | 100 (≈ 175 µM) | 14 | 50 (≈ 87.5 µM) | < 10 | 16 | 50 (≈ 87.5 µM) | – | – | Activity [1]: inactive; zone of inhibition at 100 µg/disc [8]: 13 mm; zone of inhibition at 100 µg/disc [9]: 19 mm; MIC [10]: 100 µg/mL (≈ 175 µM); MIC [15]: 50 µg/mL (≈ 87.5 µM)
2 | Cc1cc(=O)oc2cc(Oc3nc(Nc4ccc(/N=C/c5ccccc5)cc4)nc(N(C)C)n3)ccc12 | – | – | < 10 | 100 (≈ 203 µM) | – | 11 | 100 (≈ 203 µM) | 100 (≈ 203 µM) | – | 12 | 100 (≈ 203 µM) | < 10 | 100 (≈ 203 µM) | < 10 | 100 (≈ 203 µM) | < 10 | 10 | 100 (≈ 203 µM) | inactive | inactive | Activity [1]: inactive; Activity [24]: inactive; Activity [26]: inactive
3 | Cc1cc(=O)oc2cc(Oc3nc(Nc4ccc(/N=C/c5ccc([N+](=O)[O-])cc5)cc4)nc(N(C)C)n3)ccc12 | < 10 | 100 (≈ 186 µM) | < 10 | 100 (≈ 186 µM) | 100 (≈ 186 µM) | < 10 | 100 (≈ 186 µM) | 100 (≈ 186 µM) | < 10 | – | 100 (≈ 186 µM) | 13 | 100 (≈ 186 µM) | < 10 | – | 13 | < 10 | 100 (≈ 186 µM) | inactive | inactive | zone of inhibition at 100 µg/disc [28]: < 10 mm; MIC [29]: 100 µg/mL (≈ 186 µM); Activity [30]: inactive
4 | COc1ccc(/C=N/c2ccc(Nc3nc(Oc4ccc5c(C)cc(=O)oc5c4)nc(N(C)C)n3)cc2)cc1OC | – | – | 12 | 100 (≈ 181 µM) | – | 16 | 100 (≈ 181 µM) | 100 (≈ 181 µM) | – | 10 | 50 (≈ 90.5 µM) | < 10 | 100 (≈ 181 µM) | < 10 | 100 (≈ 181 µM) | 12 | 12 | 100 (≈ 181 µM) | inactive | – | Activity [24]: inactive; Activity [26]: inactive; zone of inhibition at 100 µg/disc [28]: 13 mm; zone of inhibition at 100 µg/disc [8]: < 10 mm; MIC [10]: 100 µg/mL (≈ 181 µM); MIC [29]: 100 µg/mL (≈ 181 µM)
5 | Cc1cc(=O)oc2cc(Oc3nc(Nc4ccc(/N=C/c5ccccc5C(=O)O)cc4)nc(N(C)C)n3)ccc12 | < 10 | 100 (≈ 186 µM) | 10 | – | 100 (≈ 186 µM) | 13 | 100 (≈ 186 µM) | – | < 10 | 11 | 100 (≈ 186 µM) | < 10 | 100 (≈ 186 µM) | – | 100 (≈ 186 µM) | – | 11 | 100 (≈ 186 µM) | inactive | inactive | Activity [31]: inactive; zone of inhibition at 100 µg/disc [28]: 11 mm; MIC [29]: 100 µg/mL (≈ 186 µM); Activity [32]: inactive
